In article PMC5650142, “GPR40 partial agonists and AgoPAMs: Differentiating effects on glucose and hormonal secretions in the rodent” (PLoS ONE, 2017):
“And” between values parts separate entries of the source, which are not always exact repeats. Identical values can stand only once.

What was measured:
GK rats = test: GK rat chronic efficacy (28 days: glucose, food intake, body weight, GLP-1, GIP, PYY, insulin, glucagon); format: in vivo; parameters: Food Intake Over Time (Fig 3C) / Total Body Weight Change Over Time / Active GLP-1 Levels Over Time: unit not given here; conditions: for Total Body Weight Change Over Time / Active GLP-1 Levels Over Time / GIP Levels Over Time / PYY Levels Over Time / Plasma Insulin Over Time: GK rats
Method: At the start of the study, fed (ambient) blood glucose was measured via glucometer at 1 h post lights on, and animals were selected and sorted into treatment groups based on ambient glucose (n = 10/ GK group, n = 6 WKY control). Blood for baseline incretin measurements was collected in the PM via tail vein. Rats were dosed via oral gavage (PO) at a volume of 5 ml/kg daily at approximately 12:30 PM with either vehicle (0.5% methylcellulose), AP1 at 30 mg/kg, or AP3 at 30 mg/kg. MK-8666, a GPR40 partial agonist synthesized at Merck & Co., Inc., Kenilworth, NJ USA [13], at 30 mg/kg was administered in feed (Research Diets, New Brunswick, NJ) and provided ad lib. All compounds were administered to achieve maximal efficacious exposures determined in acute efficacy studies similar to those acute studies described above. In brief, partial agonists and AgoPAMs were titrated in the acute GK rat experiment described above and the exposure associated with maximal efficacy in glucose lowering was noted. Partial agonists and AgoPAMs were then dosed to maintain those exposures up to 24h post dose. […] Rats from this group and the WKY controls were administered vehicle PO when the vehicle, AP1, and AP3 groups were treated. Fed blood glucose, food intake, and body weights were determined on days 10, 17, 23, and 28 of study at 2 h post lights on. Immediately after these measures were taken on days 10, 17, 23, and 28, food was removed. After 5h of fasting, animals were dosed with vehicle or compound and allowed to rest for an additional hour. Glucose, GLP-1, GIP, and PYY were measured after 6h of fasting at 1 hr post dose. Fed blood glucose is described by animals having had ad libidum access to feed up till the time of sampling and occurred at 2h post-lights on where rats were nearing the end of their nocturnal feeding cycle. Fasted blood glucose is described by blood glucose sampled after 6h of fasting where food was removed at 2h post lights on. Please note that the fasted sample was taken 1h post oral dosing. On day 10, blood was collected from the tail vein (20 μl) after morning glucose measures and after 6 hour fast from a subset of n = 3 rats per treatment group to determine the fed and fasted exposure of the compounds in circulation. The blood was stored at 4°C in 0.1 M sodium citrate for subsequent analysis of drug exposure.
Blood for insulin, glucagon, GLP-1, GIP, and PYY measurements was collected into K2EDTA Microtainer tubes (BD, Franklin Lakes, NJ) pre-treated with DPP4 inhibitor (Millipore, Billerica, MA) and cOmplete™ Protease Inhibitor Cocktail Tablets (Roche Diagnostics, Indianapolis, IN). Tubes were centrifuged for 10 minutes at 5000 RPM, and plasma was aliquotted for analysis. Plasma insulin levels were measured via EIA (Mesoscale Discovery ELISA Kit, Gaithersburg MD). Rat plasma total GLP-1 was measured using Total GLP-1 (ver.2) Assay Kit (Cat#: K150JVC). The measurement of active GLP-1 was carried out in a similar manner as that described for total GLP-1 assay with the exception that MSD Active GLP-1 (ver. 2) assay kit (Cat# K150JWC) was used. Rat plasma glucagon was measured using an in-house glucagon assay developed as a MSD format sandwich immunoassay (Merck & Co., Inc., MRL, Kenilworth, NJ USA). The antibody specificity was cross validated via mass- spec using procedures described in Lee et al. Briefly, MSD Streptavidin Gold plates were coated with 2 μg/ml biotin mouse monoclonal antibody generated to glucagon. Test samples were added to the plates and a separate Sulfo- tagged monoclonal antibody was used to detect the captured glucagon protein (2 μg/ml). The ELISA was carried out in the standard reagents in the MSD format. The plate was read on the SECTOR Imager 6000 Reader. Metabolic hormones GIP (Gastric Inhibitory Polypeptide) and PYY (Peptide YY) were measured in rat plasma using the Rat Metabolic Magnetic Bead Panel (EMD Millipore, Billerica, MA). The assay was performed according to manufacturer protocol. […]

[1] = system: pancreatic islets from wild type and GPR40−/− mice; test: Isolated pancreatic islets static GDIS assay (insulin, glucagon secretion); format: cell-based, mouse; parameters: Islet insulin / Islet insulin, mean: unit not given here; conditions: for glucagon secretion from islets: ex vivo; for Islet Glucagon / Islet insulin: individual replicates; for Islet Glucagon, mean / Islet insulin, mean: mean of replicates
Method: Pancreatic islets of Langerhans were isolated from wild type and GPR40^−/− mice (littermates) by collagenase digestion and discontinuous Ficoll gradient separation. […] Insulin secretion was determined by a 1-h static incubation in Krebs-Ringer bicarbonate (KRB) buffer in a 96-well format as previously described. […] The buffer was removed from the wells at the end of the incubation and assayed for insulin levels using the Insulin ELISA kit (ALPCO, Salem, NH) and glucagon level using glucagon ELISA kit (ALPCO, Salem, NH).

## COc1ccc(F)c(-c2ccc([C@@H]3CCc4ccc([C@H](C5CC5)[C@H](C)C(=O)O)cc4O3)cc2)c1 [AP1]
GK rats; 30 mpk, Day 10
  Food Intake Over Time (Fig 3C): 14.85 and 15.61 and 15.57 and 15.255 and 16.22
GK rats; 30 mpk, Day 17
  Food Intake Over Time (Fig 3C): 15.5286 and 15.8857 and 16.0214 and 17.2929 and 17.7357
GK rats; 30 mpk, Day 23
  Food Intake Over Time (Fig 3C): 16.8417 and 19.1417 and 18.7583 and 18.725 and 18.4
GK rats; 30 mpk, Day 28
  Food Intake Over Time (Fig 3C): 16.96 and 17.9 and 19.14 and 19.07 and 19.25
GK rats; 30 mpk, day 28, fed, individual animals
  Fed glucose on day 28 (Fig 3B): 126 and 113 and 121 and 107 and 114 and 98 and 108 and 105 and 131
GK rats; GK rat, 30 mg/kg, day 28
  fed blood glucose vs partial agonist MK-8666: significantly reduced
GK rats; 30 mpk, Day 0, individual animals (Fig 3D)
  Total Body Weight Change Over Time: 0
GK rats; 30 mpk, Day 0, individual animals (Fig 4B), 30 mg/kg
  Active GLP-1 Levels Over Time: 1.001 and 1.9298 and 1.3237 and 1.012 and 1.8577 and 2.191 and 1.713 and 1.556 and 0.8866 and 1.073
GK rats; 30 mpk, Day 0, individual animals (Fig 4C), 30 mg/kg, in pg/mL (unit assumed)
  GIP Levels Over Time: 80.27 and 43.35 and 55.2 and 66.33 and 82.49 and 41.1 and 77.69 and 54.81 and 38.69 and 31.07
GK rats; 30 mpk, Day 0, individual animals (Fig 4D), 30 mg/kg
  PYY Levels Over Time: 60.82 and 59.71 and 48.43 and 38.89 and 91.83 and 69.38 and 126.38 and 46.38 (2×) and 80.42
GK rats; 30 mpk, Day 0, individual animals (Fig 5A), 30 mg/kg
  Plasma Insulin Over Time: 1.323 ng/mL and 1.278 ng/mL and 2.387 ng/mL and 1.318 ng/mL and 1.715 ng/mL and 1.561 ng/mL and 2.638 ng/mL and 2.341 ng/mL and 1.122 ng/mL and 2.349 ng/mL
GK rats; 30 mpk, Day 10, individual animals (Fig 3D), 30 mg/kg
  Total Body Weight Change Over Time: 10 and 3 (2×) and 13 and 6 and 2 (3×) and -13 and 5
GK rats; 30 mpk, Day 10, individual animals (Fig 4B), 30 mg/kg
  Active GLP-1 Levels Over Time: 10.3955 and 6.299 and 7.593 and 12.0213 and 6.042 and 7.2 and 9.814 and 9.197 and 8.5449 and 7.4703
GK rats; 30 mpk, Day 10, individual animals (Fig 4C), 30 mg/kg, in pg/mL (unit assumed)
  GIP Levels Over Time: 505.7 and 493.84 and 467.75 and 217.82 and 519.4 and 141.67 and 384.6 and 413 and 296.23 and 81.09
GK rats; 30 mpk, Day 10, individual animals (Fig 4D), 30 mg/kg, in pg/mL (unit assumed)
  PYY Levels Over Time: 253.19 and 328.35 and 279.77 and 271.66 and 270.68 and 232.37 and 216.99 and 227.15 and 181.2 and 198.89
GK rats; 30 mpk, Day 10, individual animals (Fig 5A), 30 mg/kg
  Plasma Insulin Over Time: 1.155 ng/mL and 0.724 ng/mL and 1.551 ng/mL and 0.8718 ng/mL and 1.112 ng/mL and 0.8329 ng/mL and 1.613 ng/mL and 0.7139 ng/mL and 1.088 ng/mL and 1.543 ng/mL
GK rats; 30 mpk, Day 17, individual animals (Fig 3D), 30 mg/kg
  Total Body Weight Change Over Time: 18 (2×) and 8 and 24 and 16 and 0 and 7 and -9 and 10 and 9
GK rats; 30 mpk, Day 17, individual animals (Fig 4B), 30 mg/kg
  Active GLP-1 Levels Over Time: 8.6 and 3.38 and 5.23 and 6.69 and 6.32 and 4.97 and 3.57 and 4.69 and 6.47 and 5.55
GK rats; 30 mpk, Day 17, individual animals (Fig 4C), 30 mg/kg, in pg/mL (unit assumed)
  GIP Levels Over Time: 378.278 and 410.03 and 370.39 and 471.66 and 268.89 and 337.14 and 352.79 and 447.92 and 402.03
GK rats; 30 mpk, Day 17, individual animals (Fig 4D), 30 mg/kg, in pg/mL (unit assumed)
  PYY Levels Over Time: 228.528 and 168.33 and 149.79 and 211.65 and 178.66 and 141.57 and 165.72 and 207.01 and 161.08
GK rats; 30 mpk, Day 17, individual animals (Fig 5A), 30 mg/kg
  Plasma Insulin Over Time: 1.312 ng/mL and 1.435 ng/mL and 1.262 ng/mL and 0.9925 ng/mL and 0.7824 ng/mL and 0.7213 ng/mL and 1.004 ng/mL and 1.148 ng/mL and 1.876 ng/mL and 2.528 ng/mL
GK rats; 30 mpk, Day 23, individual animals (Fig 3D), 30 mg/kg
  Total Body Weight Change Over Time: 24 and 11 and 37 and 25 and 27 and 22 and 16 and -6 and 9 and 12
GK rats; 30 mpk, Day 28, individual animals (Fig 3D), 30 mg/kg
  Total Body Weight Change Over Time: 32 and 14 and 36 and 27 and 34 and 30 and 23 and 3 and 20 and 21
GK rats; 30 mpk, Day 28, individual animals (Fig 4B), 30 mg/kg
  Active GLP-1 Levels Over Time: 4.803 and 5.789 and 8.538 and 7.972 and 5.7178 and 6.58 and 6.497 and 8.013 and 7.134 and 7.267
GK rats; 30 mpk, Day 28, individual animals (Fig 4C), 30 mg/kg, in pg/mL (unit assumed)
  GIP Levels Over Time: 265.13 and 306.48 and 225.82 and 160.64 and 220.15 and 277.09 and 298.29 and 238.76 and 210.52 and 175.96
GK rats; 30 mpk, Day 28, individual animals (Fig 4D), 30 mg/kg, in pg/mL (unit assumed)
  PYY Levels Over Time: 152.15 and 162.1 and 214.06 and 98.83 and 138.17 and 173.94 and 241.37 and 220.84 and 169.14 and 119.76
GK rats; 30 mpk, Day 28, individual animals (Fig 5A), 30 mg/kg
  Plasma Insulin Over Time: 1.27 ng/mL and 1.377 ng/mL and 1.276 ng/mL and 0.4335 ng/mL and 1.675 ng/mL and 1.248 ng/mL and 2.339 ng/mL and 0.9305 ng/mL and 0.8869 ng/mL and 1.165 ng/mL
[1]; GPR40-/- mouse islets
  glucagon secretion from islets: abolished
[1]; KO mouse islets, G2, 1uM
  Islet Glucagon: 8.295 pg/ml/ islet and 16.584 pg/ml/ islet and 5.331 pg/ml/ islet and 9.664 pg/ml/ islet and 1.86 pg/ml/ islet and 24.388 pg/ml/ islet and 22.826 pg/ml/ islet and 23.18 pg/ml/ islet and 16.858 pg/ml/ islet and 27.237 pg/ml/ islet
  Islet insulin: 0.224 and 0.186 and 0.933 and 0.721 and 1.124 and 0.514 and 0.261 and 0.152 and 0.181 and 0.215
  Islet Glucagon, mean: 15.6223 pg/ml/ islet
  Islet insulin, mean: 0.4511
[1]; KO mouse islets, G16, 1uM
  Islet Glucagon: 5.183 pg/ml/ islet and 12.803 pg/ml/ islet and 9.635 pg/ml/ islet and 3.883 pg/ml/ islet and 11.858 pg/ml/ islet and 6.688 pg/ml/ islet and 0.121 pg/ml/ islet and 5.519 pg/ml/ islet and 6.26 pg/ml/ islet and 3.878 pg/ml/ islet
  Islet insulin: 2.959 and 3.403 and 3.966 and 2.272 and 3.839 and 3.783 and 2.961 and 3.664 and 2.593 and 1.94
  Islet Glucagon, mean: 6.5828 pg/ml/ islet
  Islet insulin, mean: 3.138
[1]; WT mouse islets, G2, 1uM
  Islet Glucagon: 55.828 pg/ml/ islet and 87.628 pg/ml/ islet and 54.498 pg/ml/ islet and 21.019 pg/ml/ islet and 35.248 pg/ml/ islet and 60.615 pg/ml/ islet and 73.937 pg/ml/ islet and 63.3 pg/ml/ islet and 50.656 pg/ml/ islet and 33.503 pg/ml/ islet
  Islet Glucagon, mean: 53.6232 pg/ml/ islet
  Islet insulin, mean: 1.0888
[1]; WT mouse islets, G2, 1uM, listed as L-005306254
  Islet insulin: 0.53 and 1.151 and 0.66 and 1.39 and 2.61 and 1.55 and 1.058 and 0.71 and 0.4565 and 0.7725
[1]; WT mouse islets, G16, 1uM
  Islet Glucagon: 29.473 pg/ml/ islet and 34.729 pg/ml/ islet and 57.354 pg/ml/ islet and 33.737 pg/ml/ islet and 7.252 pg/ml/ islet and 14.915 pg/ml/ islet and 23.157 pg/ml/ islet and 23.385 pg/ml/ islet and 38.776 pg/ml/ islet
  Islet Glucagon, mean: 29.1976 pg/ml/ islet
  Islet insulin, mean: 11.6921
[1]; WT mouse islets, G16, 1uM, listed as L-005306254
  Islet insulin: 12.607 and 12.478 and 13.17 and 12.065 and 9.432 and 10.077 and 12.044 and 12.3 and 10.845 and 11.903
[1]; WT mouse islets
  glucagon secretion from islets: significantly elevated
